Experimental data taken from patent US5162328A, “N-[3-[2-(1H-imidazol-1-yl)ethoxy]phenyl]-4-(2-thienyl)-2-pyrimidinamine and pharmacologically acceptable salts” (American Cyanamid Company, priority 1991, dated 1992).
Values joined by “and” are separate entries in the source; they are usually repeats but may differ in a detail not shown here. Identical values can stand only once.

Key:
[1] = tested on: immunologically stimulated human basophils; experiment: Inhibition of histamine release from immunologically stimulated human basophils; format: cell-based; conditions: Homo sapiens
Text: The bronchospasm of allergic asthma is a consequence of the release of mediators, such as histamine and slow-reacting substances from mast cells. The role of mediator release in the induction of an asthmatic attack has been fully reviewed and documented; see […]. and Austen, K. F., Bronchial Asthma Mechanisms and Therapeutics, E. B. Weiss, Editor, Little, Brown and Company, Boston, 163, (1976); Lichtenstein, L. M., Asthma-Physiology, Immunopharmacology and Treatment, Second International Symposium, L. M. Lichtenstein and K. F. Austen, Editors, Academic Press, New York, 51, (1979); and Bell, S. C., et al., Annular Reports in Medicinal Chemistry, 14, 51, H. J. Hess, Editor, Academic Press, New York, (1979). The novel compounds of this invention have been tested by the procedure of Lichtenstein, L. M. and Osler, A. G., J. Exp. […] Dissolve 140.3 g of sodium chloride, 7.45 g of Trizma-Tris Pre-Set, Reagent Grade, pH 7.6 at 25° C. (Sigma Chemical Co.) in sufficient water to give a final volume of 2 liters. (Sigma chemical Co.) (30 mg/ml) Made to 0.075M and 0.5M respectively, with calcium chloride dihydrate and magnesium chloride hexahydrate. A 10 ml portion of 10× Tris Buffer and 1.0 ml of human albumin are diluted to 100 ml with water. A 10 ml portion of 10× Tris Buffer, 1.0 ml of human albumin, 0.8 ml of calcium stock and 0.2 ml of magnesium stock are diluted to 100 ml with water. Behring Diagnostics (Generally used at 10 μg protein/ml final concentration). Strength 1:100 (w:v) allergenic extract, Hollister-Stier Labs. Generally this is diluted 1:1000 to 1:10,000 (considering the vial as stock). Interdermal solutions or intramuscular preparations for hyposensitization, Hollister-Stier Labs. The final concentrations used are on the order of 1 PNU/ml. Using four 20 ml heparinized tubes, […] of blood are withdrawn from subjects with known histamine release to anti-IgE, ragweed antigen or other specific allergen. These 80 ml of blood are mixed with 20 ml of saline containing 0.6 g of dextrose and 1.2 g of dextran. The blood is allowed to sediment at room temperature in two 50 ml polycarbonate centrifuge tubes until a sharp interface develops between the red cells and plasma (60-90 minutes). The plasma, containing the leukocytes, (top) layer from each tube, is withdrawn by pipet and transferred to 50 ml polycarbonate tubes. The plasma is centrifuged for 8 minutes at 110× G at 4° C. The supernatant is carefully poured off as completely as possible and the cell button is resuspended in 2-3 ml of Tris-A buffer using a siliconized Pasteur pipet. The resuspension is accomplished by drawing the liquid gently in an out of the pipet, with the tip below the liquid until an even suspension of cells is obtained. […]

[2] = tested on: passive cutaneous anaphylaxis lesions in the rat; experiment: Rat Passive Cutaneous Anaphylaxis Assay (PCA); format: in vivo, rat (male Wistar strain); conditions: for Lesion Area (Low IgE): IgE 25 ng/site; for Lesion Area (Low IgE) / Lesion Area (High IgE): mean ± SD; for Lesion Area (High IgE): IgE 50 ng/site
Experimental: Solutions made by dissolving 0.50 g in 100 ml of normal saline. Mouse monoclonal IgE (ICN Biochemicals) clone SPE-7 directed against DNP is subdivided into 50 ul aliquots and stored at -70° C. DNP-ovalbumin is made by reacting DNP sulfonic acid with ovalbumin dissolved in saline overnight at room temperature. The resulting solution is dialyzed extensively at 4 C to remove unreacted DNPsulfonic acid and stored as 1 mL aliquots of 100 mg/ml at -70° C. Male Wistar strain rats, certified viral free, weighing 250-300 g are obtained from Hilltop Laboratory Animals and housed, in accordance with AALAC standards, on site for at least one week before use. Forty-eight hours before challenge the rats are shaved on the dorsal surfaces and returned to the cages. Twenty-four hours before challenge the rats are given intradermal injections of 0.1 mL, one on each flank, of saline containing IgE at concentrations ranging from 1000 to 250 ng/mL. These injections give a local dose of 100 to 25 ng IgE. The IgE binds to specific receptors on mast cells in the skin. […] To the Evan's blue dye is added sufficient DNP-ovalbumin to make a 1 mg/ml solution. This allergen containing dye is injected intravenously via a tail vein into the rats at 10 ml/Kg. The Evans' blue binds to plasma albumin and remains in the vascular space under conditions of normal capillary permeability. The allergen, which can diffuse into the extravascular space, binds to the IgE on the surface of the cutaneous mast cells and initiates the immediate hypersensitivity response which leads to the release of histamine by intracellular granules of the mast cell. The histamine causes an increase in capillary permeability which allows plasma proteins including the dye tagged albumin to diffuse into the extracellular space resulting in a blue spot in the skin. The size of the lesion is proportional to the amounts of mediators released. This process reaches an optimum in 30 minutes. Thirty minutes after challenge the rats are euthanized by CO2. The skin is reflected from the back and the lesion areas estimated as the product of the largest diameter of the bluespot and the diameter perpendicular to it. A compound which is a mediator release inhibitor will reduce the spot area. The effectiveness of the compounds is determined by Analysis of Variance of the lesion areas grouped by IgE dose and compound. Compounds are considered active at the P<0.05 level. Table II contains the results of the experiments expressed as the areas of the lesions in mm^2. The control lesions for these experiments are also listed. Because more than one compound at a time is tested, some of the control values are repeated in the table. Table III contains the data expressed as a % of the appropriate control.

[3] = 2.0 mg/kg PO 2 hrs, hydrochloride

With `Cl.c1cc(Nc2nccc(-c3cccs3)n2)cc(OCCn2ccnc2)c1` [Compound 1, N-[3-[2-(1H-Imidazol-1-yl)ethoxy]phenyl]-4-(2-thienyl)-2-pyrimidinamine hydrochloride] the IC50 [1] was 100 ± 10 nM, the “Lesion Area (Low IgE)” value ([2]; 0.125 mg/kg PO 2 hrs) was 87 ± 16 mm^2 and the “Lesion Area (High IgE)” value ([2]; 0.125 mg/kg PO 2 hrs) was 132 ± 20 mm^2. For the same compound, the “Lesion Area (Low IgE)” value ([2]; 0.25 mg/kg PO 2 hrs) was 92 ± 13 mm^2, the “Lesion Area (High IgE)” value ([2]; 0.25 mg/kg PO 2 hrs) was 127 ± 19 mm^2 and the “Lesion Area (High IgE)” value ([2]; 1.0 mg/kg PO 2 hrs, hydrochloride) was 115 ± 14 mm^2 and 100 ± 20 mm^2 and 129 ± 26 mm^2. The “Lesion Area (Low IgE)” value ([2]; 1.5 mg/kg PO 2 hrs) was 56 ± 22 mm^2, the “Lesion Area (High IgE)” value ([2]; 1.5 mg/kg PO 2 hrs) was 128 ± 43 mm^2 and the “% CONTROL (lesion area)” value ([2]; 1.5 mg/kg PO @ 2 hrs) was 41.8%. For the same compound, the “Lesion Area (Low IgE)” value [2, 3] was 71 ± 20 mm^2 and 76 ± 14 mm^2, the “Lesion Area (High IgE)” value [2, 3] was 103 ± 5 mm^2 and 119 ± 19 mm^2 and the “% CONTROL (lesion area)” value ([2]; 2 mg/kg PO @ 2 hrs, hydrochloride) was 56.8% and 43.3%. For the same compound, the “Lesion Area (Low IgE)” value ([2]; 2.5 mg/kg PO 2 hrs) was 8 ± 15 mm^2, the “Lesion Area (High IgE)” value ([2]; 2.5 mg/kg PO 2 hrs) was 17 ± 30 mm^2 and the “% CONTROL (lesion area)” value ([2]; 2.5 mg/kg PO @ 2 hrs) was 15.0%.
